The results in this text go back to patent publication US8053585B2, “Protecting group for carboxylic acids that can be photolyzed by visible light” (Cornell Research Foundation, Inc., priority 2006, dated 2011).

Each structure is given as a SMILES string. Entries after “also recorded” stand apart in the source; their conditions may differ.

For this assay, the target named is T1, α1-subunit of the human glycine receptor (Homo sapiens, UniProt P23415).
T1 construct: expressed in transfected cells; host or cells: HEK 293 cells, transiently transfected (Polyfect), co-transfected with GFP plasmid as marker; cDNA from Prof; H. Betz
T1 sequence (P23415 29-457): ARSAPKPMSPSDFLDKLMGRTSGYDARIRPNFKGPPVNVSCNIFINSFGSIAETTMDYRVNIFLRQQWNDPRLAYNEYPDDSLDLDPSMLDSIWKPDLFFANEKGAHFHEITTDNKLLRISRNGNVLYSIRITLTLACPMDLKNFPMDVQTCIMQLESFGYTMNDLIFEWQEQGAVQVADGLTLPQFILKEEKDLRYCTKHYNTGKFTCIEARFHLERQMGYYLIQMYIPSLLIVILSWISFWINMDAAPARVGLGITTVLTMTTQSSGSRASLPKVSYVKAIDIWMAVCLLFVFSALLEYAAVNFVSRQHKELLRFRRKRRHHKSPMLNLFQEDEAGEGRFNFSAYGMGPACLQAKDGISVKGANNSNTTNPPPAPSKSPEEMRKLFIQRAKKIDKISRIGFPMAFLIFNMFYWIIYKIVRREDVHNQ
Description: Whole-cell current recording with cell-flow method, HEK 293 cells expressing glycine receptor. It is filed as cell-based. An excerpt:
In whole-cell current recording experiments with DECM-caged glutamate, HEK 293 cells stably transfected with cDNA encoding the GluR6 were used. In whole-cell current recording experiments with DECM-caged glycine, HEK 293 cells were transiently transfected with the cDNA of the α1-subunit of the human glycine receptor by using the Polyfect™ transfection reagent (Qiagen GmbH, D-40724, Hilden, Germany). The cDNA of the α1-subunit was kindly provided by Professor H. Betz (Max-Plank-Institute for brain Research, Frankfurt, Germany). The cells were co-transfected with cDNA encoding the green fluorescent protein (pGreen Lantern plasmid, Life Technologies, Gaitherberg, Md.) to detect transfected cells (Chalfie et al., “Green Fluorescent Protein as a Marker for Gene Expression,” Science 263:802-805 (1994), which is hereby incorporated by reference in its entirety).
The cells were used for electrophysiological experiments between 24 and 72 h after each passage. Whole-cell currents evoked by glutamate or glycine (100 μM) were recorded using the whole-cell configuration (Hamill et al., “Improved Patch-Clamp Techniques for High-Resolution Current Recording From Cells and Cell-Free Membrane Patches,” Pfluegers Arch 391:85-100 (1981), which is hereby incorporated by reference in its entirety) at room temperature, −60 mV, and pH 7.4. […]

As to `CCN(CC)c1ccc2c(COC(=O)CN)cc(=O)oc2c1` [DECM-caged glycine, (7-N,N-Diethylaminocoumarin-4-yl)-methyl-glycine-trifluoroacetate], the “whole-cell current evoked by 100 μM glycine, presence vs absence of compound” value (2 mM DECM-caged glycine (FIG. 10 legend), −60 mV, pH 7.4, 22° C.) is “does not inhibit”. Besides, for the setting “HEK293 cells expressing glycine receptors”, the “biological activity at glycine receptors (inhibition or activation)” value is “biologically inert; also recorded: neither DECM-caged glycine nor its byproducts inhibited or activated the glycine receptors”.
